For test [1], the target named is T1, TRPC5 (Homo sapiens, UniProt Q9UL62).
T1 construct: expressed in transfected cells; host or cells: HEK293 FITR (inducible expression)
T1 sequence (Q9UL62 1-973): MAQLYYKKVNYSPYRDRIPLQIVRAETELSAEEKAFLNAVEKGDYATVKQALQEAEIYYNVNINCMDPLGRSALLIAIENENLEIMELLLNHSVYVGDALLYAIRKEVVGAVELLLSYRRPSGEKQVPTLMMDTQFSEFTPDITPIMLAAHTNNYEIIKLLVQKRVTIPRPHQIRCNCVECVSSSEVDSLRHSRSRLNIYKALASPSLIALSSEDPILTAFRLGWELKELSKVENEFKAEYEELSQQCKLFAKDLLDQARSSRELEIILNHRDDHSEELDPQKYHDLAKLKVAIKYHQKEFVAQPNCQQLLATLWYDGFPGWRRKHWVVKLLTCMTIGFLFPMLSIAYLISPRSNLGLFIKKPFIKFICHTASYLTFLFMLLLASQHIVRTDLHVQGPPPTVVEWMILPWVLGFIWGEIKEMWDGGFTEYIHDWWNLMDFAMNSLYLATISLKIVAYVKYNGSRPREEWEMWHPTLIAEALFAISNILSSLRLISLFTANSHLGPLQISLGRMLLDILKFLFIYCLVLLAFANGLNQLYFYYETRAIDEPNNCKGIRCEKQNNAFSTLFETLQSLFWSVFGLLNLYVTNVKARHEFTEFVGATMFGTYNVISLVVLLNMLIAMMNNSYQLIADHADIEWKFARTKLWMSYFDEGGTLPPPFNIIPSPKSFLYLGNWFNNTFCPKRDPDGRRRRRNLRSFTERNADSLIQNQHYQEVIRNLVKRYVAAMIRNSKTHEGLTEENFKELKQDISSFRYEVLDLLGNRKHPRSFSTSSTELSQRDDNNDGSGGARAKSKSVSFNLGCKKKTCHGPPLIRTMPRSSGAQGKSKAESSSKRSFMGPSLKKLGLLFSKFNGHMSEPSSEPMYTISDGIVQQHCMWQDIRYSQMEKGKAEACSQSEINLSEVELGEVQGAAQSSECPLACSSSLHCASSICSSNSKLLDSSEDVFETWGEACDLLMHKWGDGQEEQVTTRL
Description: Whole-cell patch clamp, AlF4- activated TRPC5 HEK293 cells. The format is cell-based. To be noted: 10 μM, -70 mV, n=20. How it is done:
Channels were indirectly excited with the same stimulus for better comparability of the norgestimate effect. Aluminium tetrafluoride (AIF^4−) applied intracellularly via the patch pipette activates G-proteins by mimicking GTP (Sternweis & Gilman, 1982; Bigay et al., 1987).
Since these channels are potentiated by micromolar La^3+ concentrations (Jung et al., 2003), 2-aminoethoxydiphenyl borate (2-APB), a characterized TRPC5 blocker (Xu et al., 2005) was used instead.
Effect of 10 μM norgestimate (NG) on whole-cell currents evoked by AlF4^− infusion into induced TRPC6— (A) and TRPC5 HEK 293 (B) cells. Whole cell currents recorded at −70 mV (left panels) and the corresponding current-voltage (I-V) relationships are shown (right panels). […] The curves were obtained during voltage ramps from −100 to +80 mV. (C) Statistical analysis of the norgestimate effect on TRPC5— and TRPC6-mediated currents.
In general terms: The patch-clamp technique gives a direct electrical read-out from membranes.

The target in test [2] is T1, TRPC5. As to the kind of experiment: FLIPR Ca2+ influx measurement, trypsin-stimulated TRPC5 HEK293 cells. The format is cell-based. To be noted: 200 nM trypsin. An excerpt: In general, cells are provided which express a TRPC channel. Such cells can be produced using genetic methods known to a person skilled in the art. After having induced the expression of the TRPC channel, cells are usually plated into e.g. microtiter plates and grown. Usually the cells grow at the bottom of multiwell plates and are fixed. Thereafter, the cells are generally washed and loaded with a dye in a suitable loading buffer, preferably with a fluorescent dye such as fluo4am. After having removed the loading buffer, the cells are incubated with the test compound or modulator, in particular with a biochemical or chemical test compound as described above, e.g. in the form of a chemical compound library. Ca^2+ measurements can be carried out using e.g. a Fluorescence Imaging Plate Reader (FLIPR). To stimulate Ca^2+ influx through the TRPC channel a channel activator such as OAG should generally be applied.
When these experiments were performed, no direct physiological stimuli of TRPC4 and TRPC5 were known. Therefore, both channels had to be stimulated indirectly, e.g. by application of trypsin, a protease-activated receptor (PAR) stimulating protease. […] Kinetics and quantity of calcium store release in cells treated with 30 μM norgestimate were not changed compared to untreated cells. […]

Entries after “also recorded” stand apart in the source; their conditions may differ.

By IC50 is commonly meant the midpoint of a concentration-inhibition curve. Read a low IC50 as higher potency. On to `C#C[C@]1(OC(C)=O)CC[C@H]2[C@@H]3CCC4=C/C(=N/O)CC[C@@H]4[C@H]3CC[C@@]21CC` [norgestimate, D-17β-acetoxy-B-ethyl-17α ethinyl-gon-4-en-3-one oxime], for which the TRPC5 current blocked in test [1] is on record as 25.9±5.7%. Further, the “inhibitory effect on TRPC5-mediated Ca2+ influx” value in test [2] (30 μM norgestimate) is “only small inhibitory effects; also recorded: slightly reduced”. The compound further yielded an IC50 in test [2] (FLIPR, n=4) greater than 30 µM.

(Values after patent US8455469B2, “Use of norgestimate as a selective inhibitor of TRPC3, TRPC6 and TRPC7 ion channels” (Sanofi, priority 2007, dated 2013).)
